From patent US4252788A, “Dental composition for preventing and inhibiting dental caries” (Toyo Seiyaku Kasei Co., Ltd., priority 1979, dated 1981)

Experiments:
[1] = Ability to inhibit decalcification of the hard tissue (dissolved calcium from human dentin powder in acid solution)
Protocol: The ability to inhibit decalcification of the hard tissue was estimated according to the method described in Nishino. Osaka University Shigaku Zasshi, Vol. 14, page 1 (1969). That is, firstly, a certain amount of human dentin powder was treated with a composition (aqueous solution of a molybdate compound) to be tested for certain minutes and then unbonded excess components were removed by washing with water to obtain a sample powder. Then, the sample powder was treated with an acid solution (decalcification) and the amount of calcium in the solution, which was dissolved in the solution by action of the acid, was determined (sample calcium content). Similarly, untreated dentin powder was added to an acid solution and the amount of calcium in the acid solution was determined (control calcium content). From these values, a inhibition rate of decalcification was calculated as follows: [formula]

[2] = test system: mice; assay: LD50 in mice; type: in vivo
From the text: Further, the dental composition of the present invention is useful from a viewpoint of toxicity since the molybdate compounds used in the present invention have toxicity as low as that of other medicaments commonly used for inhibition of dental caries.

[3] = In vivo inhibition of dental caries in rats on cariogenic diet inoculated with Streptococcus mutans; set-up: species or system Male Sprague-Dawley rats; conditions: for Average caries score (± S.E.), Dm (moderate dental caries) / Average caries score (± S.E.), Ds (slight dental caries) / Average caries score (± S.E.), Dx (extensive dental caries) / Inhibition rate of dental caries, Dm (moderate dental caries) / Inhibition rate of dental caries, Ds (slight dental caries) / Inhibition rate of dental caries, Dx (extensive dental caries): 8 weeks
Protocol: Further, the ability of the composition of the present invention to inhibit dental caries was tested in vivo as follows:
45 Male Sprague-Dawley rats (18 days old) were divided into three groups (15 rats/group). These rats were kept with the following cariogenic diet and deionized water during the test period (8 weeks).
0.2 ml of a culture broth, which was prepared by anaerobic cultivation of Streptococcus mutans in brain-heart-infusion broth at 37° C. for 24 hours, was orally administered to each rat once a day for 5 days. On the first, 7th, 14th, 21st, 28th and 35th days of the test period, 10% solution of (NH4)2 MoO2 F4 in deionized water (pH 7.5) was applied twice to mandibular molar of each rat of the first group with a cotton applicator and dried for 5 minutes. Likewise, 2% solution of NaF in deionized water (pH 3.6) was applied to each rat of the second group. As a control, mere deionized water was also applied to each rat of the third group. After 8 weeks, rats were sacrificed and mandibula of each rat was isolated and autoclaved at 121° C. for 5 minutes to remove gingiva and the like attached thereto. After drying, the severity of dental caries of each isolated mandibular molar was estimated with a caries score according to the method described in P. H. Keyes, J. Dent. Res., […], 1088-1099 (1958). In Tables 3 and 4, symbols of the severity of dental caries mean as follows:
Dm: moderate dental caries (dental caries extends to a quarter to three quarters part between enamel and dental pulp); and
Dx: extensive dental caries (dental caries extends to more than three quarters part between enamel and dental pulp).
The inhibition rate of dental caries is calculated as follows: [formula]

[4] = test system: protease (collagenase or trypsin); assay: Ability to inhibit digestion of the soft tissue (human decalcified dentin powder in opaque agar plate, clear zone with protease); type: biochemical; conditions: sodium fluoride
Protocol: The ability to inhibit digestion of the soft tissue was estimated according to the method described in Yanagida et al, Shonishikagaku Zasshi, Vol. 9, page 39 (1971). That is, various molybdate compounds (Na2 MoO2 F4, K2 MoO2 F4, (NH4)2 MoO2 F4, Na2 MoO4 or K2 MoO4) were dissolved in deionized water in various concentrations to obtain various compositions to be tested. A certain amount of human decalcified dentin powder was treated with each of the above prepared compositions for certain minutes and then unbonded excess components were removed by dialysis to obtain a sample powder. Then, an opaque agar plate was prepared from a mixture of agar and the sample powder, and a protease (collagenase or trypsin) was added to the plate. The inhibiting ability was estimated by observing whether a clear zone was formed on the plate or not (the clear zone is formed by dissolution of the powder with the enzyme, and the formation thereof means digestion of the soft tissue).

[5] = 0.5 hr decalcification, Mo 1%, pH 3
[6] = 0.5 hr decalcification, Mo 4%, pH 7
[7] = 1 hr decalcification, Mo 1%, pH 3
[8] = 1 hr decalcification, Mo 4%, pH 7
[9] = 3 hrs decalcification, Mo 1%, pH 3
[10] = 3 hrs decalcification, Mo 4%, pH 7
[11] = 5 hrs decalcification, Mo 1%, pH 3
[12] = 5 hrs decalcification, Mo 4%, pH 7
[13] = 0.5 hr decalcification, Mo 1%, pH 5
[14] = 1 hr decalcification, Mo 1%, pH 5
[15] = 3 hrs decalcification, Mo 1%, pH 5
[16] = 5 hrs decalcification, Mo 1%, pH 5
[17] = 1st group, 10% solution, pH 7.5

Structure (SMILES): O.O=P(O)(O)O.[O]=[Mo](=[O])=[O].[O]=[Mo](=[O])=[O].[O]=[Mo](=[O])=[O].[O]=[Mo](=[O])=[O].[O]=[Mo](=[O])=[O].[O]=[Mo](=[O])=[O].[O]=[Mo](=[O])=[O].[O]=[Mo](=[O])=[O].[O]=[Mo](=[O])=[O].[O]=[Mo](=[O])=[O].[O]=[Mo](=[O])=[O].[O]=[Mo](=[O])=[O] [P2 O5 . 24MoO3, phosphomolybdic acid]
- Inhibition rate of decalcification [1, 5]: 58.32%
- Inhibition rate of decalcification [1, 6]: 45.22%
- Inhibition rate of decalcification [1, 7]: 52.02%
- Inhibition rate of decalcification [1, 8]: 44.82%
- Inhibition rate of decalcification [1, 9]: 54.24%
- Inhibition rate of decalcification [1, 10]: 47.39%
- Inhibition rate of decalcification [1, 11]: 43.12%
- Inhibition rate of decalcification [1, 12]: 44.61%

Structure (SMILES): [NH4+].[NH4+].[O]=[Mo-2](=[O])([F])([F])([F])[F] [(NH4)2 MoO2 F4, ammonium dioxotetrafluoromolybdate]
- Inhibition rate of decalcification [1, 5]: 44.43%
- Inhibition rate of decalcification [1, 13]: 44.43%
- Inhibition rate of decalcification [1, 7]: 34.60%
- Inhibition rate of decalcification [1, 14]: 45.45%
- Inhibition rate of decalcification [1, 9]: 36.47%
- Inhibition rate of decalcification [1, 15]: 42.39%
- Inhibition rate of decalcification [1, 11]: 37.27%
- Inhibition rate of decalcification [1, 16]: 43.12%
- LD50 (p.o.) [2]: 124 mg/kg
- Average caries score (± S.E.), Dm (moderate dental caries) [3, 17]: 0.7 ± 0.2
- Average caries score (± S.E.), Ds (slight dental caries) [3, 17]: 3.9 ± 0.6
- Average caries score (± S.E.), Dx (extensive dental caries) [3, 17]: 0.2 ± 0.2
- Inhibition rate of dental caries, Dm (moderate dental caries) [3, 17]: 82.9%
- Inhibition rate of dental caries, Ds (slight dental caries) [3, 17]: 54.7%
- Inhibition rate of dental caries, Dx (extensive dental caries) [3, 17]: 93.8%
- Dental caries inhibitory effect (in words) ([3]; Tables 3 and 4): excellent dental caries inhibitory effect
- Inhibition rate of dental caries compared with NaF (in words) ([3]; at any severity): extremely superior to that of the composition containing NaF
- Inhibition of moderate and extensive dental caries (in words) ([3]; scores of Dm and Dx in Table 3): moderate and extensive dental caries are almost inhibited

Structure (SMILES): [F-].[Na+] [NaF, sodium fluoride, reference compound]
- Inhibition rate of decalcification ([1]; 0.5 hr decalcification, reference NaF 2%, pH 5): 43.91%
- Inhibition rate of decalcification ([1]; 0.5 hr decalcification, reference NaF 2%, pH 7): 41.94%
- Inhibition rate of decalcification ([1]; 1 hr decalcification, reference NaF 2%, pH 5): 40.66%
- Inhibition rate of decalcification ([1]; 1 hr decalcification, reference NaF 2%, pH 7): 36.36%
- Inhibition rate of decalcification ([1]; 3 hrs decalcification, reference NaF 2%, pH 5): 47.97%
- Inhibition rate of decalcification ([1]; 3 hrs decalcification, reference NaF 2%, pH 7): 36.59%
- Inhibition rate of decalcification ([1]; 5 hrs decalcification, reference NaF 2%, pH 5): 38.76%
- Inhibition rate of decalcification ([1]; 5 hrs decalcification, reference NaF 2%, pH 7): 36.93%
- Average caries score (± S.E.), Dm (moderate dental caries) ([3]; 2nd group, 2% solution, pH 3.6): 2.3 ± 0.5
- Average caries score (± S.E.), Ds (slight dental caries) ([3]; 2nd group, 2% solution, pH 3.6): 6.9 ± 0.8
- Average caries score (± S.E.), Dx (extensive dental caries) ([3]; 2nd group, 2% solution, pH 3.6): 1.1 ± 0.4
- Inhibition rate of dental caries, Dm (moderate dental caries) ([3]; 2nd group, 2% solution, pH 3.6): 43.9%
- Inhibition rate of dental caries, Ds (slight dental caries) ([3]; 2nd group, 2% solution, pH 3.6): 19.8%
- Inhibition rate of dental caries, Dx (extensive dental caries) ([3]; 2nd group, 2% solution, pH 3.6): 65.6%
- Inhibition of protease digestion (in words) [4]: does not inhibit protease digestion of the soft tissue
- Inhibition of protease digestion (in words) ([4]; listed as sodium fluoride): no inhibition of protease digestion

Structure (SMILES): O=P([O-])([O-])[O-].[Na+].[Na+].[Na+].[O]=[Mo](=[O])=[O].[O]=[Mo](=[O])=[O].[O]=[Mo](=[O])=[O].[O]=[Mo](=[O])=[O].[O]=[Mo](=[O])=[O].[O]=[Mo](=[O])=[O].[O]=[Mo](=[O])=[O].[O]=[Mo](=[O])=[O].[O]=[Mo](=[O])=[O].[O]=[Mo](=[O])=[O].[O]=[Mo](=[O])=[O].[O]=[Mo](=[O])=[O] [Na3 PO4 . 12MoO3, sodium phosphorus molybdate]
- Inhibition rate of decalcification [1, 5]: 42.20%
- Inhibition rate of decalcification [1, 13]: 49.90%
- Inhibition rate of decalcification [1, 7]: 42.42%
- Inhibition rate of decalcification [1, 14]: 33.21%
- Inhibition rate of decalcification [1, 9]: 41.11%
- Inhibition rate of decalcification [1, 15]: 30.78%
- Inhibition rate of decalcification [1, 11]: 40.94%
- Inhibition rate of decalcification [1, 16]: 30.85%

Structure (SMILES): [K+].[K+].[O]=[Mo](=[O])([O-])[O-] [K2 MoO4, potassium orthomolybdate]
- Inhibition rate of decalcification ([1]; 0.5 hr decalcification, Mo 4%, pH 3): 30.80%
- Inhibition rate of decalcification [1, 6]: 36.30%
- Inhibition rate of decalcification ([1]; 1 hr decalcification, Mo 4%, pH 3): 33.33%
- Inhibition rate of decalcification [1, 8]: 38.64%
- Inhibition rate of decalcification ([1]; 3 hrs decalcification, Mo 4%, pH 3): 35.42%
- Inhibition rate of decalcification [1, 10]: 43.55%
- Inhibition rate of decalcification ([1]; 5 hrs decalcification, Mo 4%, pH 3): 34.52%
- Inhibition rate of decalcification [1, 12]: 36.24%

Structure (SMILES): [Na+].[Na+].[O]=[Mo-2](=[O])([F])([F])([F])[F] [Na2 MoO2 F4, sodium dioxotetrafluoromolybdate]
- Inhibition rate of decalcification [1, 5]: 63.30%
- Inhibition rate of decalcification [1, 13]: 62.39%
- Inhibition rate of decalcification [1, 7]: 64.65%
- Inhibition rate of decalcification [1, 14]: 50.51%
- Inhibition rate of decalcification [1, 9]: 66.67%
- Inhibition rate of decalcification [1, 15]: 49.59%
- Inhibition rate of decalcification [1, 11]: 66.28%
- Inhibition rate of decalcification [1, 16]: 49.43%

Structure (SMILES): [Na+].[Na+].[O]=[Mo](=[O])([O-])[O-] [Na2 MoO4, sodium orthomolybdate]
- Inhibition rate of decalcification ([1]; 0.5 hr decalcification, Mo 4%, pH 5): 45.61%
- Inhibition rate of decalcification [1, 6]: 44.04%
- Inhibition rate of decalcification ([1]; 1 hr decalcification, Mo 4%, pH 5): 47.60%
- Inhibition rate of decalcification [1, 8]: 42.17%
- Inhibition rate of decalcification ([1]; 3 hrs decalcification, Mo 4%, pH 5): 49.25%
- Inhibition rate of decalcification [1, 10]: 33.80%
- Inhibition rate of decalcification ([1]; 5 hrs decalcification, Mo 4%, pH 5): 47.82%
- Inhibition rate of decalcification [1, 12]: 35.42%
